In PubChem BioAssay AID2060503 (Molecular Pharmacology Branch, DTP, NCI, 2025):

Tested on: 817829-284-R-J1-PDC complex spheroids, viability
Experiment: Anticancer human tumor 817829-284-R-J1-PDC patient-derived colon adenocarcinoma cell line growth inhibition [GQUAD]
Details: for IC50: curve of first compound; for viability, T/C: stronger effect = lower value
Method in brief: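 Tumor cells were grown as complex spheroids with HUVEC endothelial cells and mesenchymal stem cells as stroma. G-quadruplex stabilizers were combined with targeted agents over half-log dilutions from near the clinical Cmax, or from 10 microM.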

[1] = second compound 0.0316 µM, first compound 0.0316 µM
[2] = second compound 0.0316 µM, first compound 0.1 µM
[3] = second compound 0.0316 µM, first compound 0.316 µM
[4] = second compound 0.0316 µM, first compound 1 µM
[5] = second compound 0.0316 µM, first compound 3.16 µM
[6] = second compound 0.0316 µM, first compound 10 µM
[7] = second compound 0.1 µM, first compound 0.0316 µM
[8] = second compound 0.1 µM, first compound 0.1 µM
[9] = second compound 0.1 µM, first compound 0.316 µM
[10] = second compound 0.1 µM, first compound 1 µM
[11] = second compound 0.1 µM, first compound 3.16 µM
[12] = second compound 0.1 µM, first compound 10 µM
[13] = second compound 0.316 µM, first compound 0.0316 µM
[14] = second compound 0.316 µM, first compound 0.1 µM
[15] = second compound 0.316 µM, first compound 0.316 µM
[16] = second compound 0.316 µM, first compound 1 µM
[17] = second compound 0.316 µM, first compound 3.16 µM
[18] = second compound 0.316 µM, first compound 10 µM
[19] = second compound 1 µM, first compound 0.0316 µM
[20] = second compound 1 µM, first compound 0.1 µM
[21] = second compound 1 µM, first compound 0.316 µM
[22] = second compound 1 µM, first compound 1 µM
[23] = second compound 1 µM, first compound 3.16 µM
[24] = second compound 1 µM, first compound 10 µM
[25] = second compound 3.16 µM, first compound 0.0316 µM
[26] = second compound 3.16 µM, first compound 0.1 µM
[27] = second compound 3.16 µM, first compound 0.316 µM
[28] = second compound 3.16 µM, first compound 1 µM
[29] = second compound 3.16 µM, first compound 3.16 µM
[30] = second compound 3.16 µM, first compound 10 µM
[31] = second compound 10 µM, first compound 0.0316 µM
[32] = second compound 10 µM, first compound 0.1 µM
[33] = second compound 10 µM, first compound 0.316 µM
[34] = second compound 10 µM, first compound 1 µM
[35] = second compound 10 µM, first compound 3.16 µM
[36] = second compound 10 µM, first compound 10 µM
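Also: spheroids exposed to agents for 7 days before readout.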
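For viability, T/C in this document: percent viability relative to DMSO vehicle control taken as 100%.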

Molecule `COc1cccc2c1C(=O)c1c(O)c3c(c(O)c1C2=O)CC(O)(C(=O)CO)CC3OC1CC(N)C(O)C(C)O1` (stereo unspecified) + CN(C)c1ccc(Nc2c3ccc(NC(=O)CCN4CCCC4)cc3nc3cc(NC(=O)CCN4CCCC4)ccc23)cc1 has an IC50 (second compound 0.0316 µM) of 95.5 nM, an IC50 (second compound 0.1 µM) of 94.5 nM and an IC50 (second compound 0.316 µM) of 93.4 nM. It also gave an IC50 (second compound 1 µM) of 96.4 nM, an IC50 (second compound 3.16 µM) of 91 nM and an IC50 (second compound 10 µM) of 95.7 nM. It also gave a viability, T/C [1] of 80.9%, a viability, T/C [2] of 39.6% and a viability, T/C [3] of 41%. The viability, T/C [4] was 10%, the viability, T/C [5] was 0.59% and the viability, T/C [6] was 0.64%. It also gave a viability, T/C [7] of 79.7%, a viability, T/C [8] of 43.4% and a viability, T/C [9] of 35.5%. The viability, T/C [10] was 10.1%, the viability, T/C [11] was 0.47% and the viability, T/C [12] was 0.28%. For the same molecule, the viability, T/C [13] was 82.7%, the viability, T/C [14] was 37.8% and the viability, T/C [15] was 40.4%. For the same molecule, the viability, T/C [16] was 9.85%, the viability, T/C [17] was 0.54% and the viability, T/C [18] was 0.34%. For the same molecule, the viability, T/C [19] was 83.1%, the viability, T/C [20] was 38.4% and the viability, T/C [21] was 40.9%. It also gave a viability, T/C [22] of 10.8%, a viability, T/C [23] of 0.57% and a viability, T/C [24] of 0.34%. It also gave a viability, T/C [25] of 91.9%, a viability, T/C [26] of 37.6% and a viability, T/C [27] of 33.8%. The viability, T/C [28] was 9.5%, the viability, T/C [29] was 0.71% and the viability, T/C [30] was 0.36%. For the same molecule, the viability, T/C [31] was 85.8%, the viability, T/C [32] was 39% and the viability, T/C [33] was 37.6%. It also gave a viability, T/C [34] of 12.3%, a viability, T/C [35] of 1% and a viability, T/C [36] of 0.33%.

In the case of `Nc1ccn(C2OC(CO)C(O)C2(F)F)c(=O)n1` (stereo unspecified) + CN(C)c1ccc(Nc2c3ccc(NC(=O)CCN4CCCC4)cc3nc3cc(NC(=O)CCN4CCCC4)ccc23)cc1, the IC50 (second compound 0.0316 µM) is reported as under 31.6 nM, the IC50 (second compound 0.1 µM) is reported as under 31.6 nM and the IC50 (second compound 0.316 µM) is reported as under 31.6 nM. For the same molecule, the IC50 (second compound 1 µM) was under 31.6 nM, the IC50 (second compound 3.16 µM) was under 31.6 nM and the IC50 (second compound 10 µM) was under 31.6 nM. The viability, T/C [1] was 11.1%, the viability, T/C [2] was 6.76% and the viability, T/C [3] was 7.53%. For the same molecule, the viability, T/C [4] was 6.63%, the viability, T/C [5] was 5.22% and the viability, T/C [6] was 3.38%. It also gave a viability, T/C [7] of 11.5%, a viability, T/C [8] of 7.05% and a viability, T/C [9] of 7.75%. For the same molecule, the viability, T/C [10] was 7.5%, the viability, T/C [11] was 5.74% and the viability, T/C [12] was 4.58%. It also gave a viability, T/C [13] of 10.2%, a viability, T/C [14] of 7.22% and a viability, T/C [15] of 7.51%. The viability, T/C [16] was 6.86%, the viability, T/C [17] was 5.17% and the viability, T/C [18] was 3.32%. The viability, T/C [19] was 10.5%, the viability, T/C [20] was 5.85% and the viability, T/C [21] was 7.62%. The viability, T/C [22] was 8.41%, the viability, T/C [23] was 6.53% and the viability, T/C [24] was 3.73%. It also gave a viability, T/C [25] of 8.54%, a viability, T/C [26] of 7.05% and a viability, T/C [27] of 8.46%. It also gave a viability, T/C [28] of 8.5%, a viability, T/C [29] of 6.92% and a viability, T/C [30] of 3.39%. The viability, T/C [31] was 10.7%, the viability, T/C [32] was 9.04% and the viability, T/C [33] was 8.83%. For the same molecule, the viability, T/C [34] was 8.64%, the viability, T/C [35] was 6.59% and the viability, T/C [36] was 4.48%.

Molecule `O=c1[nH]cc(F)c(=O)[nH]1` + CN(C)c1ccc(Nc2c3ccc(NC(=O)CCN4CCCC4)cc3nc3cc(NC(=O)CCN4CCCC4)ccc23)cc1 has an IC50 (second compound 0.0316 µM) of 2120 nM, an IC50 (second compound 0.1 µM) of 2450 nM and an IC50 (second compound 0.316 µM) of 2400 nM. It also gave an IC50 (second compound 1 µM) of 2700 nM, an IC50 (second compound 3.16 µM) of 2510 nM and an IC50 (second compound 10 µM) of 2690 nM. For the same molecule, the viability, T/C [1] was 112%, the viability, T/C [2] was 104% and the viability, T/C [3] was 119%. It also gave a viability, T/C [4] of 73.4%, a viability, T/C [5] of 44.2% and a viability, T/C [6] of 30.7%. The viability, T/C [7] was 101%, the viability, T/C [8] was 102% and the viability, T/C [9] was 94.3%. For the same molecule, the viability, T/C [10] was 84.3%, the viability, T/C [11] was 39.9% and the viability, T/C [12] was 29.3%. For the same molecule, the viability, T/C [13] was 102%, the viability, T/C [14] was 106% and the viability, T/C [15] was 97.1%. It also gave a viability, T/C [16] of 78.7%, a viability, T/C [17] of 40.7% and a viability, T/C [18] of 29.6%. For the same molecule, the viability, T/C [19] was 99.5%, the viability, T/C [20] was 101% and the viability, T/C [21] was 108%. The viability, T/C [22] was 83%, the viability, T/C [23] was 45.7% and the viability, T/C [24] was 31.6%. The viability, T/C [25] was 91.2%, the viability, T/C [26] was 96.7% and the viability, T/C [27] was 102%. The viability, T/C [28] was 74.1%, the viability, T/C [29] was 45.4% and the viability, T/C [30] was 29%. It also gave a viability, T/C [31] of 102%, a viability, T/C [32] of 95.9% and a viability, T/C [33] of 100%. For the same molecule, the viability, T/C [34] was 80.5%, the viability, T/C [35] was 45.3% and the viability, T/C [36] was 31.9%.
